From ChEMBL document CHEMBL5724914, “Linking interpersonal differences in gut microbiota composition and drug biotransformation activity” (2024)

Assays:
[1] = human gut metagenome, 24 h, 2 µM
[2] = human gut metagenome, 24 h, 2 µM; remark: listed apart in the source
[3] = human gut metagenome, 24 h, 2 µM; remark: listed apart in the source
[4] = human gut metagenome, 24 h, 2 µM; remark: listed apart in the source
[5] = (§1) The drug is tested on Z-029 corresponding to rat gut metagenome with ENA study accession number: PRJEB37062 and ENA sample accession number: ERS12561828 for biotransformation under anaerobic condition. The drug concentrations were measured over 9 timepoints collected between 0 and 24 hours of incubation by liquid-chromatography-coupled mass spectrometry (LC–MS); conditions: 2 µM
[6] = human gut metagenome, 24 h, 2 µM; remark: listed apart in the source
[7] = as §1, with “Z-010” for “Z-029”, “to” for “to rat gut”, “ERS12561810” for “ERS12561828”; conditions: 2 µM
[8] = as §1, with “Z-008” for “Z-029”, “to” for “to rat gut”, “ERS12561808” for “ERS12561828”; conditions: 2 µM
[9] = human gut metagenome, 24 h, 2 µM; remark: listed apart in the source
Note: call rule not given here.

| SMILES | Bacterial Biotransformation [1] | Bacterial Biotransformation [2] | Bacterial Biotransformation [3] | Bacterial Biotransformation [4] | Bacterial Biotransformation [5] | Bacterial Biotransformation [6] | Bacterial Biotransformation [7] | Bacterial Biotransformation [8] | Bacterial Biotransformation [9] |
| --- | --- | --- | --- | --- | --- | --- | --- | --- | --- |
| CCOC(=O)[C@H](CCc1ccccc1)N[C@H]1CCc2ccccc2N(CC(=O)O)C1=O [BENAZEPRIL] | Compound metabolized | Compound metabolized | Compound metabolized | Compound metabolized | Compound metabolized | Compound metabolized | Compound metabolized | Compound metabolized | Compound metabolized |
| NS(=O)(=O)c1cc2c(cc1Cl)N=C(CSCc1ccccc1)NS2(=O)=O [BENZTHIAZIDE] | Compound NOT metabolized | Compound NOT metabolized | Compound NOT metabolized | Compound NOT metabolized | Compound NOT metabolized | Compound NOT metabolized | Compound NOT metabolized | Compound NOT metabolized | Compound NOT metabolized |
| CC(C)NCC(O)COc1ccc(COCCOC(C)C)cc1.CC(C)NCC(O)COc1ccc(COCCOC(C)C)cc1.O=C(O)/C=C/C(=O)O (stereo unspecified) [BISOPROLOL FUMARATE] | Compound NOT metabolized | Compound NOT metabolized | Compound metabolized | Compound NOT metabolized | Compound NOT metabolized | Compound metabolized | Compound NOT metabolized | Compound NOT metabolized | Compound NOT metabolized |
| CCCCCOC(=O)Nc1nc(=O)n([C@@H]2O[C@H](C)[C@@H](O)[C@H]2O)cc1F [CAPECITABINE] | Compound metabolized | Compound metabolized | Compound metabolized | Compound metabolized | Compound metabolized | Compound metabolized | Compound metabolized | Compound NOT metabolized | Compound metabolized |
| Cc1ccc(-c2cc(C(F)(F)F)nn2-c2ccc(S(N)(=O)=O)cc2)cc1 [CELECOXIB] | Compound metabolized | Compound NOT metabolized | Compound NOT metabolized | Compound metabolized | Compound NOT metabolized | Compound metabolized | Compound NOT metabolized | Compound NOT metabolized | Compound NOT metabolized |
| Clc1ccc(Cn2c(CN3CCCC3)nc3ccccc32)cc1 [CLEMIZOLE] | Compound NOT metabolized | Compound NOT metabolized | Compound NOT metabolized | Compound NOT metabolized | Compound NOT metabolized | Compound metabolized | Compound metabolized | Compound NOT metabolized | Compound metabolized |
| CN1CCN(C2=Nc3cc(Cl)ccc3Nc3ccccc32)CC1 [CLOZAPINE] | Compound metabolized | Compound NOT metabolized | Compound NOT metabolized | Compound metabolized | Compound NOT metabolized | Compound metabolized | Compound NOT metabolized | Compound NOT metabolized | Compound NOT metabolized |
| COc1cc2c(c(OC)c1OC)-c1ccc(OC)c(=O)cc1[C@@H](NC(C)=O)CC2 [COLCHICINE] | Compound metabolized | Compound NOT metabolized | Compound metabolized | Compound metabolized | Compound NOT metabolized | Compound metabolized | Compound metabolized | Compound NOT metabolized | Compound metabolized |
| CC(=O)OCC(=O)[C@@]12N=C(C)O[C@@H]1C[C@H]1[C@@H]3CCC4=CC(=O)C=C[C@]4(C)[C@H]3[C@@H](O)C[C@@]12C [DEFLAZACORT] | Compound metabolized | Compound metabolized | Compound metabolized | Compound metabolized | Compound NOT metabolized | Compound metabolized | Compound metabolized | Compound metabolized | Compound metabolized |
| CN(C)CC(c1ccc(O)cc1)C1(O)CCCCC1.O=C(O)CCC(=O)O (stereo unspecified) [DESVENLAFAXINE SUCCINATE] | Compound NOT metabolized | Compound NOT metabolized | Compound NOT metabolized | Compound NOT metabolized | Compound NOT metabolized | Compound NOT metabolized | Compound NOT metabolized | Compound NOT metabolized | Compound NOT metabolized |
| CN1CCN(C(=O)O[C@H]2c3nccnc3C(=O)N2c2ccc(Cl)cn2)CC1 [ESZOPICLONE] | Compound NOT metabolized | Compound NOT metabolized | Compound NOT metabolized | Compound NOT metabolized | Compound NOT metabolized | Compound NOT metabolized | Compound NOT metabolized | Compound NOT metabolized | Compound NOT metabolized |
| O=C1[C@H](CC[C@H](O)c2ccc(F)cc2)[C@@H](c2ccc(O)cc2)N1c1ccc(F)cc1 [EZETIMIBE] | Compound NOT metabolized | Compound NOT metabolized | Compound NOT metabolized | Compound NOT metabolized | Compound NOT metabolized | Compound metabolized | Compound NOT metabolized | Compound NOT metabolized | Compound NOT metabolized |
| CC(C)OC(=O)C(C)(C)Oc1ccc(C(=O)c2ccc(Cl)cc2)cc1 [FENOFIBRATE] | Compound metabolized | Compound metabolized | Compound metabolized | Compound metabolized | Compound NOT metabolized | Compound NOT metabolized | Compound metabolized | Compound metabolized | Compound metabolized |
| O=C1NCC2(CCN(CCc3ccccc3)CC2)O1 [FENSPIRIDE] | Compound NOT metabolized | Compound NOT metabolized | Compound NOT metabolized | Compound NOT metabolized | Compound NOT metabolized | Compound NOT metabolized | Compound NOT metabolized | Compound NOT metabolized | Compound NOT metabolized |
